In ChEMBL document CHEMBL1149346, “Activity of nitrogen-containing and non-nitrogen-containing bisphosphonates on tumor cell lines” (J Med Chem, 2006) one finds IC50 data, which are given here for eleven molecules.

Some results are limits rather than exact numbers.

For orientation: IC50 means the midpoint of a concentration-inhibition curve. The low end stands for higher potency, the high end for lower potency.

Format in all cases: functional, cell-based
The test system of one test is 13762. Description: Antiproliferative activity against rat 13762 cell line.
Another test relates to SF-268. In words: cells. As to conditions: Homo sapiens.
The test system of the next test is NCI-H460. In words: Antiproliferative activity against human NCI-H460 cell line by MTT assay. A general note: Tetrazolium assays rely on reduction of a dye to a coloured formazan, in cell work by metabolically active cells.
The subject of another test is MCF7. Description: Antiproliferative activity against human MCF7 cell line by MTT assay.

Description for SF-268: Antiproliferative activity against human SF-268 cell line by MTT assay

As to `NCCC(O)(P(=O)(O)O)P(=O)(O)O` [PAMIDRONIC ACID], the IC50 with 13762 stood at 33.6 µM; in the test on SF-268 it was 408 µM; in the test on NCI-H460, 71.8 µM; in the test on MCF7, 141 µM.

With `CCCCc1ccc[n+](CC(O)(P(=O)([O-])O)P(=O)(O)O)c1` (stereo not given), the half-maximal inhibitory concentration (IC50) in the test with SF-268 was found to be 13.1 µM; with NCI-H460 it was 14.8 µM; in the test with MCF7 it was 21.4 µM.

As for `CCC(C)CNC(P(=O)(O)O)P(=O)(O)O` (stereo not given), the IC50 came out at 301 µM in the test with SF-268, 469 µM in the test on NCI-H460 and 447 µM with MCF7.

Consider `CC(C)(C)C(=O)OCOP(=O)(OCOC(=O)C(C)(C)C)C(Cc1ccc(Br)c(Br)c1)P(=O)(OCOC(=O)C(C)(C)C)OCOC(=O)C(C)(C)C`, for which the IC50 is 0.65 µM with SF-268, 0.62 µM with NCI-H460 and 0.22 µM in the test on MCF7.

For `N#Cc1cccc(CC(P(=O)(O)O)P(=O)(O)O)c1`, the IC50 in the test on SF-268, in the test on NCI-H460 and in the test on MCF7 was more than 1000 µM each time.

`CCc1ccc[n+](CC(O)(P(=O)([O-])O)P(=O)(O)O)c1` (stereo not given): the IC50 was 45.8 µM in the test on SF-268, 71.7 µM with NCI-H460 and 50.7 µM with MCF7.

As for `O=P([O-])(O)C(C[n+]1cccc(-c2ccccc2-c2ccccc2)c1)P(=O)(O)O` (stereo not given), the IC50 in the test on SF-268 came out at 232 µM; in the test with NCI-H460, 208 µM; in the test with MCF7, 236 µM.

Consider `O=P(O)(O)C(O)(Cc1cccnc1)P(=O)(O)O` [RISEDRONIC ACID], for which the IC50 with 13762 is more than 40 µM; in the test on SF-268 it was 23.3 µM; in the test on NCI-H460 it was 43.7 µM; in the test on MCF7 it was 35.7 µM.

Turning to `CC(C)OC(=O)OCOP(=O)(OCOC(=O)OC(C)C)C(Cc1ccc(Cl)c(Cl)c1)P(=O)(OCOC(=O)OC(C)C)OCOC(=O)OC(C)C`, the 50% inhibitory concentration (IC50) in the test with SF-268 turned out to be 4.78 µM; in the test with NCI-H460, 4.85 µM; with MCF7 it was 1.97 µM.

Take `O=P([O-])(O)C(O)(C[n+]1ccc2ccccc2c1)P(=O)(O)O` (stereo not given): the results for the IC50 in the test on SF-268, in the test with NCI-H460 and in the test on MCF7 were 260 µM, 297 µM and 288 µM, respectively.

For the molecule `O=P(O)(O)C(O)(Cc1ccc(-c2cccc(-c3ccccc3)c2)cc1)P(=O)(O)O`, the half-inhibitory concentration (IC50) with SF-268 amounted to 620 µM; with NCI-H460, 413 µM; in the test on MCF7, 412 µM.
